Laboratory results as given in patent US20050164370A1 (priority 2003, published 2005).

How the values were obtained:
[1] = system: transformed cells TM182-CYC1-CYC1IPT5; conditions: TM182-CYC1-CYC1IPT5, DOHLU+Glu agar containing 10 μM trans-zeatin, 30° C. for 30 hours
Experimental: (§1) After incubation, the growth state of the transformed cells was observed and photographed by a digital camera.

[2] = system: transformed cells TM182-CYC1-CYC1IPT4; conditions: TM182-CYC1-CYC1IPT4, DOHLU+Glu agar containing 10 μM trans-zeatin, 30° C. for 30 hours
Experimental: as §1

[3] = system: transformed cells TM182-AHK2-CYC1IPT5; conditions: TM182-AHK2-CYC1IPT5, DOHLU+Glu agar containing 10 μM trans-zeatin, 30° C. for 30 hours
Experimental: as §1

[4] = system: transformed cells TM182-CYC1-ADHIPT5; conditions: TM182-CYC1-ADHIPT5, DOHLU+Glu agar containing 10 μM trans-zeatin, 30° C. for 30 hours
Experimental: as §1

[5] = system: transformed cells TM182-AHK2-ADHIPT4; conditions: TM182-AHK2-ADHIPT4, DOHLU+Glu agar containing 10 μM trans-zeatin, 30° C. for 30 hours
Experimental: as §1

[6] = system: transformed cells TM182-CRE1-ADHIPT4; conditions: TM182-CRE1-ADHIPT4, DOHLU+Glu agar containing 10 μM trans-zeatin, 30° C. for 30 hours
Experimental: as §1

[7] = system: transformed cells TM182-CYC1-ADHIPT4; conditions: TM182-CYC1-ADHIPT4, DOHLU+Glu agar containing 10 μM trans-zeatin, 30° C. for 30 hours
Experimental: as §1

[8] = system: transformed cells TM182-AHK2-CYC1IPT4; conditions: TM182-AHK2-CYC1IPT4, DOHLU+Glu agar containing 10 μM trans-zeatin, 30° C. for 30 hours
Experimental: as §1

With `C/C(=C\CNc1ncnc2nc[nH]c12)CO` [trans-zeatin] as the compound, how does the “growth state of the transformed cells” value [1] read?
The value was “not observed to grow”.

What about the “growth state of the transformed cells” value [2] of the same compound?
Its value is “not observed to grow”.

What about the “growth state of the transformed cells” value [3] of the same compound?
Its value is “observed to grow”.

And the “growth state of the transformed cells” value [4]?
Its value is “not observed to grow”.

And the “growth state of the transformed cells” value [5]?
The value was “observed to grow”.

And the “growth state of the transformed cells” value [6]?
The value was “observed to grow”.

What about the “growth state of the transformed cells” value [7] of the same compound?
The value was “not observed to grow”.

And the “growth state of the transformed cells” value [8]?
Its value is “observed to grow”.
